Results on 3 compounds are retold here after patent publication US11905244B2, “Chemical modulators of store-operated calcium channels and their therapeutic applications” (The Texas A&M University System, priority 2017, dated 2024).

Structures are written as SMILES. Entries after “also recorded” stand apart in the source; their conditions may differ. Like-named read-outs stand apart in the source and are kept apart here.

One experiment has as its target CRAC channel (Homo sapiens (Human), UniProt Q96D31). Put plainly: GFP-NFAT translocation-based high-content screening (TG-stimulated HeLa cells stably expressing GFP-NFAT). Conditions: for Inhibitory activity on CRAC channel in primary screening (NFAT nucleus-to-cytosol ratio): 200 μM compound. It is filed as cell-based. An excerpt: It is known that thapsigargin (TG) can induce the CRAC channel to open resulting in the calcium influx. The elevation of calcium in cytoplasm can activate the Ca^2+-calcineurin-NFAT pathway followed by NFAT translocation from the cytoplasm to the nucleus to regulate gene transcription. Therefore, the inventors built a GFP-NFAT translocation-based high-content screening method to evaluate the activity of compounds on CRAC channel. Briefly, a HeLa cell line stably expressing GFP-NFAT was established and used, and the images after chemical stimulation in the presence of TG were acquired using an IN Cell Analyzer 6000 confocal laser imaging system, and then the GFP fluorescent intensity ratio between cytoplasm and nucleus was analyzed to reflect the inhibitory activity of compound on CRAC channel.
Briefly, GFP-NFAT stable cells were cultured in Dulbecco's modified eagle's medium (DMEM) supplemented with 10% FBS in 5% carbon dioxide at 37° C. When it reached 90% confluency, a cell suspension with a concentration of […] was prepared, and an amount of 2000 cells per well (25 μL/well) was seeded in 384 well plate, putting it at the room temperature for 1 h to make sure the cells distribute evenly, then the cells were incubated overnight. First, primary screening of the selected compounds was conducted. A series of compound solutions with a concentration of 200 μM in MEDM medium were prepared in a 96 well plate and then added to a 384 well plate using a Beckman Coulter automatic drug adding system, in 4 duplicates, and incubated for 30 min at 37° C. SKF was selected as the positive control. Then, 1 μM TG and 1 mM Ca^2+ were added to 384-well plate using Beckman Coulter automatic drug adding system and incubated for 20 min. Subsequently, 384 well plate was gently washed with PBS twice, and the cells were fixed with 4% PFA (25 μl per well) for 10˜15 mins at room temperature, then washed with PBS gently, added 0.5% Triton X-100 (25 μL per well), and incubated for 5 mins aFt room temperature, stained with DAPI (1 μg/mL) for 5˜10 mins at room temperature, washed with PBS and added 30 μL PBS per well to image on confocal laser imaging system (objective lens: 10×, FITC and UV). Using Pipeline Plot software (NAFT translocation protocol), the intensity of green fluorescence was analyzed in nucleus and cytosol, calculate the ratio of nucleus:cytosol, normalize TG stimulate NFAT translocation as 1 and no TG adding as 0. Finally, the data was analyzed using GraphPad Prism 5 software.

A further experiment relates to calcium influx. Put plainly: Inhibitory activity on calcium influx. It is filed as cell-based.
Experiment [1] deals with cytokine IL-2 expression in primary T cells. Description: Effect of compounds on cytokine expression in primary T cells (flow cytometry). It is filed as cell-based. Conditions: Mus musculus, T-cell. Here is the method:
The lymph nodes and a spleen from mouse were collected, and then the immune cells were induced to differentiate towards Th1 cells in presence of α-CD3, α-CD28, IL-12, and IL-2. After obtaining Th1 cells, the cells were amplified and then the cells were treated with drugs. The expression level of the cytokine was analyzed using flow cytometry.
(In general: A flow cytometer gives signals particle by particle.)

The test system of experiment [2] is IL-2 and IFNγ expression in Jurkat cell. Put plainly: Cytokine expression in Jurkat cells. It is filed as cell-based.
In experiment [3] the test system is MDA-MB-231 breast cancer cells. Description: Migration assay (wound healing assay). It is filed as cell-based. The note with it: MDA-MB-231, wound healing assay. How it is done: The effect of compounds on inhibiting migration was evaluated using wound healing assay. Briefly, cells were seeded in a six well-plate, and a wound was generated by scratching the cell monolayer with a 200 μL pipette tip. Then, cells were continued to be cultured in the presence or absence of compounds, and the photographic recording was performed at 0 h, 24 h, and 48 h respectively. The number of the migrated cells was calculated with ImageJ software.

The subject of experiment [4] is MDA-MB-231 breast cancer cells. Put plainly: Invasion assay. It is filed as cell-based.
Experiment [5] deals with azoxymethane (AOM)-induced mouse colon cancer model. Put plainly: Azoxymethane (AOM)-induced mouse colon cancer model. Conditions: treated for 8 weeks. The class given is in vivo. How it is done: To induce colon cancer in situ, mice (four month old) were randomly divided into three groups: (1) AOM control group; (2) Compound 53 group, (3) CsA group, and injected with AOM subcutaneously (10 mg/kg body weight) once a week for 4 weeks. Then, Compound 53 and CsA group were treated with Compound 53 and CsA respectively for 8 weeks, and the control group was treated with 0.9% NaCl solution. Then, mice were killed and the colon was isolated. The number of the tumors formed was analyzed.

The test system of the next experiment is Jurkat cells. Put plainly: Cell cycle analysis in Jurkat cells. It is filed as cell-based. The note with it: compared to control. Here is the method:
(§1) Cells were treated with or without compounds at 37° C. with 5% CO2. After incubation for 24 h, cells were collected by trypsinization and fixed with cold 95% ethanol over 30 min at 4° C. Subsequently, the cell suspension was centrifuged at 1000 rmp/5 min, and washed with PBS one time. The cell pellets were resuspended in 0.4 mL PBS and treated with RNAase A (0.1 mg/mL) at 37° C. for 30 min. Then, propidium iodine (50 μg/mL, PI) was added and the cells were stained for 30 min at 37° C. Analysis of cellular DNA content was performed by flow cytometry.

The test system of another experiment is U87 cells. Put plainly: Cell cycle analysis in U87 cells. The class given is cell-based. Conditions: compared to control. How it is done:
as §1

Where [6] appears, read: GFP-NFAT translocation assay, read-out: IC50 on CRAC channel.
The mark [7] stands for this setting: Table 2, unit inferred, read-out: IC50 of the compounds (inhibitory activity on CRAC channel).

Chain of CRAC channel (Q96D31 whole entry): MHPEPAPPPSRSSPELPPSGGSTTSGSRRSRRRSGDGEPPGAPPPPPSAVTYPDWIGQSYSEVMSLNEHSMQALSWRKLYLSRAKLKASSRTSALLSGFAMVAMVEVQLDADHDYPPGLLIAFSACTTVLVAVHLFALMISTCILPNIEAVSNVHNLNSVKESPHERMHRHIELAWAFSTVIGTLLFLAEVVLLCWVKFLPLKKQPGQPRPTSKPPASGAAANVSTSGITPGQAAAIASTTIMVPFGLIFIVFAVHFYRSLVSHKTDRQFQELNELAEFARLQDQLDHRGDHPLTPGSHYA

For the compound `CCN/C(=N\c1cc(Cl)cc(Cl)c1)S[C@H]1CC(=O)N(c2ccc(C(=O)O)cc2)C1=O` [Compound 41], the “Inhibitory activity on CRAC channel in primary screening (NFAT nucleus-to-cytosol ratio)” value on CRAC channel is given as “good activity”. Also, the IC50 – broadly, the concentration at which inhibition is half-maximal – was about 100 µM at CRAC channel (setting [6]) and 279 µM at CRAC channel (Table 1, hits from virtual screening, unit inferred, read-out: IC50 Value). Besides, the “Inhibitory activity on calcium influx” value in the experiment with calcium influx is “obvious inhibitory activity”.
As for `COC(=O)c1ccc(N2C(=O)CC(S/C(=N\c3ccccc3)NCCc3ccc(S(N)(=O)=O)cc3)C2=O)cc1` (stereo not shown) [Compound 53], the “Inhibitory activity on CRAC channel in primary screening (NFAT nucleus-to-cytosol ratio)” value at CRAC channel is “good inhibition”. In addition, the IC50 amounted to 8.14 µM on CRAC channel (setting [6]), 13 µM on CRAC channel (setting [7]) and 15.6 ± 1.17 µM in experiment [1]. Further, in [2], the “IL-2 and IFNγ (cytokine) expression” value is “inhibit IL-2 and IFNγ expression; also recorded: inhibits cytokine expression”. Besides, the Cell migration entry in [3] is “greatly inhibit”. For the same compound, the Cell invasion entry in [4] is listed as “greatly inhibit”. For the same compound, the “Antitumor activity compared with positive control drug CsA” value in [5] is “better than the positive control drug CsA”. Also, in experiment [5], the “Number of the formed tumors in the colon” value was “greatly decrease the number of the formed tumors; also recorded: reducing the number of tumors formed compared to the control group”.
As to `CCOC(=O)c1ccc(N2C(=O)CC(S/C(=N/c3ccccc3)NC3CC3)C2=O)cc1` (stereo not shown) [Compound 87], the figures for the IC50 (on CRAC channel (setting [7]); in [1]) were 0.95 µM and 0.86 ± 0.12 µM, respectively. The “Effect on cell cycle” value in the experiment with Jurkat cells and with U87 cells was “cell cycle arrest at GO stage” each time. Also, in experiment [3], the Cell migration entry is on record as “greatly inhibit”. For the same compound, the Cell invasion entry in experiment [4] is “greatly inhibit”.
